Experimental data taken from patent publication US20260258397A1, “REAGENTS AND SYSTEMS FOR […]” (priority 2023, published 2026).
Values joined by “and” are separate entries in the source; they are usually repeats but may differ in a detail not shown here. Identical values can stand only once. Like-named read-outs stand apart in the source and are kept apart here.

Experiments:
PYR1^4F-M = target: T1, PYR1^4F-M (Arabidopsis thaliana, UniProt O49686, A160G/F159V/H115Q/H60P/N90S/Y120G); experiment: PYR1 ELISA-like plate assay, immobilized PYR1^4F-M with biotinylated ΔN-HAB1^T+; assay type: binding; details: PYR1^4F-M ELISA-like format
T1 construct: made in house; host or cells: E. coli
Protocol: PYR1 was immobilized overnight in clear plates, blocked with KPL milk diluent in buffer CBS ^17 (CBSM). All binding reactions were performed using CBSM. Detection was performed via binding a streptavidin-HRP conjugate to biotinylated ΔN-HAB1^T+ followed by incubation with a commercial TMB reagent. Lower limits of detection (LODs) were determined by linear regression of the response data in the low linear range using the formula LOD=3σy/m, where m is the slope of the response line and σy is the standard error of the y intercept using data combined from biological replicates.
Unconjugated 6×His-MBP-PYR1 variants were immobilized to Microlon clear plates (655081) using 100 μL of CBS without pH modification, at a protein concentration of 100 μg mL^−1, or 1.57 AM at 4° C. overnight. Wells assigned as no PYR controls received only CBS. Plates were sealed using Microseal B adhesive sealers (BioRad MSB-1001). […] The pellet was stored on ice until the blocked and washed plates were ready to receive the binding reactions. ΔN-HAB1^T+ was exchanged into CBSM with 1 mM DTT and 1 mM TCEP (CBSM++) using Zeba™ spin desalting columns (Thermo) were equilibrated with CBSM++. ΔN-HAB1^T+ was diluted to 10× the final binding reaction concentration and was immediately added to the pre-assembled assays in PCR plates, which were mixed by pipetting and transferred to the washed, blocked Microlon plates. […]

[1] = test system: PYR1 mutant receptors (ligand-dependent binding to HAB1); experiment: Yeast two-hybrid screens and optimization for organophosphate sensors; assay type: cell-based, Arabidopsis; details: after four rounds of recombination-based mutagenesis (PYR1^DIAZI, PYR1^PIRI)
Protocol: Surviving cells were collected and used in subsequent positive selections for ligand-responsive receptors on SD,-Leu,-Trp,-Ura media supplemented with a specific test chemical (100 μM) for responsiveness to any of the 10-member panel of organophosphate compounds: diazinon, pirimiphos-methyl, azinphos-ethyl, dimethoate, chlorfenvinphos, disulfoton, parathion-methyl, bromophos-methyl, malathion, and monocrotophos; all compounds were purchased form (Sigma-Aldrich). Isolated colonies were tested by regrowth on ligand-containing media and by dose response using X-gal staining and Sanger sequenced (see FIG. 13a-d).
Recombination-based mutagenesis of hit receptors was used to generate subsequent molecular diversity for selection-based optimization experiments, using the same general strategy across all scaffolds utilized. […] The resulting shuffled DNA fragments were cloned into pBD, transformed into E. coli, colonies collected, and plasmids extracted.

PYR1^DIAZI = target: T2, PYR1^DIAZI (Arabidopsis thaliana, UniProt O49686, A160V/E8G/F108Y/F159G/L87M/M158V/V81Y); experiment: cell-based; details: for Bottom: fit bottom of GFP fluorescence response; for Top: fit top of GFP fluorescence response
T2 construct: expressed in transfected cells; host or cells: S. cerevisiae (2µ plasmid)
T2 sequence (O49686 1-191 E8G/V81Y/L87M/F108Y/M158V/F159G/A160V): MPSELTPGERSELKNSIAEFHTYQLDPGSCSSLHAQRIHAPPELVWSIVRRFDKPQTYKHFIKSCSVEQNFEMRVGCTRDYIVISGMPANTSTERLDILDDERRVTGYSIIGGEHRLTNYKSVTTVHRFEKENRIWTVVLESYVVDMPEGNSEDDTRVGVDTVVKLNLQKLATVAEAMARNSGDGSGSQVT
T2 sequence (Q9CAJ0 178-511 partner): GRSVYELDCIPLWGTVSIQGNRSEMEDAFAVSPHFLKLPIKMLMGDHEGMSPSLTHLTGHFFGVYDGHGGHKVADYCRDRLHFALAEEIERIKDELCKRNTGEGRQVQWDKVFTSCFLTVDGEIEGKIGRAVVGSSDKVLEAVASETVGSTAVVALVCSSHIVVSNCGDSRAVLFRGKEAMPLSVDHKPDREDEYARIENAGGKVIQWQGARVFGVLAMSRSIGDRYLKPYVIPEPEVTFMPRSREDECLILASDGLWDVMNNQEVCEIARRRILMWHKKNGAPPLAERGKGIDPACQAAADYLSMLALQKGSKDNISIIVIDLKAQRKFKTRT
Description: (§1) PYR1 variants were used to drive gene expression in an inducible genetic circuit by fusing a zinc finger DNA binding domain (Z4^32) to the N-terminus of PYR1, and the VP64 activation domain 33 to the N-terminus of ΔN-HAB1. The SV40 nuclear localization signal was also fused to the N-terminus of PYR1. A single 2u plasmid was used to express SV40-Z4DBD-PYR1 and VP64-HAB1, while the GFP expression cassette (Z44-CYCcore-GFP-CYC 1term) was integrated at the YPRCΔ15 site on chromosome XVI. GFP fluorescence induced by each circuit was measured 12 h after ligand addition to 1 mL cultures, 30° C. Fluorescence was measured by flow cytometry. Briefly, 50 μL of resuspended cells were transferred to a 96-well plate for analysis. The fluorescence intensity of each cell was measured using a BD Accuri C6 flow cytometer equipped with auto-loading. The forward scatter, side scatter, and GFP fluorescence (Ex/Em 488/533 nm) were recorded for a minimum of 10,000 events.
(§2) Transformed yeast cells were acquired by first inoculating 5 mL of liquid media and incubating in a shaker incubator overnight at 30° C. Cells from the overnight culture were then used to inoculate a 50 mL culture with an initial cell density of 5×10^6 cells/mL. This culture was grown at 30° C. with 200 rpm shaking until ~2×10^7 cells/mL were produced, approximately 3 to 5 hours. Cells were harvested by centrifugation at 4000 rpm for 5 min, washed with 25 mL sterile, deionized water, resuspended in 1 mL of 100 mM LiAc, and transferred to a 1.5 mL tube, producing a cell suspension with approximately 10^9 cells/mL. The cell suspension was briefly mixed by vortexing and 100 μL was transferred into a clean 1.5 mL tube for each transformation. Cells were pelleted at 13000 rpm for 15 sec and the supernatant was removed. A transformation mixture of 240 μL PEG (50% w/v), 36 μL 1.0 M LiAc, 50 μL salmon sperm DNA (2.0 mg/ml), plasmid, and sterile water were added to the cell pellet and mixed by vortexing for 1 min (total volume of 360 μL). The mixed transformation solution was then heat shocked at 42° C. for 40 min. Post heat-shock, cells were recovered by centrifugation at 8000 rpm for 30 sec. Cells resuspended in 400 μL sterile water were plated on appropriate selection media, in this case agar-SD media without uracil. Plates were incubated at 30° C. until mature colonies were formed.
(§3) Three single transformants were picked from selection plates, inoculated in 2 mL of SD-Ura containing 2% glucose in 14 mL culture tubes. After 24 hours of growth at 30° C. in a shaker incubator (200 rpm), the OD600 of each sample was measured and cultures were back diluted to OD600=0.2 in fresh SD-Ura, the total volume of diluted culture was 9 mL. Each 9 mL culture was separated into 8 unique cultures by transferring 1 mL into 8 different wells of a 96 deep-well plate. Each well was used to evaluate the effect of a specific concentration of ligand. After all the cultures were transferred, 1 μL of stock ligand solution (each stock varying in concentration) was added to each well. The plate was sealed with an air-breathable polymer film and cultured with 1000 rpm shaking at 30° C. for 12 hours. Shaker humidity was maintained at 90%. Cells were harvested by centrifuge at 5000 g for 10 min, and after discarding the supernatant, the cells were suspended in 1 mL PBS buffer and centrifuged at 5000 g for 10 min. The cells were washed with 1 mL PBS buffer twice and resuspended in 1 mL DI water for flow cytometry analysis. For flow cytometry analysis, 50 μL of resuspended cells were transferred to a 96-well plate with flat bottom, adding DI water up to final volume 200 μL. The fluorescence intensity of cells within each sample was measured using a BD Accuri C6 flow cytometer equipped with auto-loading from 96 well plates. The forward scatter, side scatter, and GFP fluorescence (Ex/Em 488/533 nm) were recorded for a minimum of 10,000 events.

PYR1^PIRI = target: T3, PYR1^PIRI (Arabidopsis thaliana, UniProt O49686, A160T/E130G/F159T/K59R/N119S/S122Q/S92M/V174A); experiment: cell-based; details: for Bottom: fit bottom of GFP fluorescence response; for Top: fit top of GFP fluorescence response
T3 construct: expressed in transfected cells; host or cells: S. cerevisiae (2µ plasmid)
T3 sequence (O49686 1-191 K59R/S92M/N119S/S122Q/E130G/F159T/A160T/V174A): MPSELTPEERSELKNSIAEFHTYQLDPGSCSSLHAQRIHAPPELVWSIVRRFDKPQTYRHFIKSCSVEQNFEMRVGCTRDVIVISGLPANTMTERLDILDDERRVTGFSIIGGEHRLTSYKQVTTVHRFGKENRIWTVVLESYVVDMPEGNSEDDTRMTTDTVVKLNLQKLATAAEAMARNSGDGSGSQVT
T3 sequence (Q9CAJ0 178-511 partner): T2 sequence (Q9CAJ0 178-511 partner)
Description: as §1, §2, §3

HAB1 = experiment: Y2H X-gal staining of evolved sensors: ligand responsiveness and cross reaction; assay type: cell-based, Arabidopsis; details: ligands WIN 55,212-2, 4F-MDMB-BUTINACA, AB-PINACA, JWH-072; PYR1^JWH-072 to low μM WIN 55,212-2, PYR1^4F to low μM AB-PINACA
Protocol: High-affinity sensors were tested for cross reaction using both Y2H and in vitro PP2C assays. […] Similar methods were used to characterize PYR1^PIRI and PYR1^WIN sensor selectivity and sensitivity.
The PYL2 coding sequence cloned in the Y2H pBD vector was used as template to incorporate the corresponding PYR1^WIN and PYR1^4F homologous residues via site directed mutagenesis using the QuikChange Lightning Multi Site-Directed mutagenesis kit (Agilent Technologies). Resulting clones PYL2^WIN (K64Q, F165A, V1661) and PYL2^4F (H119Q, Y124G, F165V, V166G) were sequence confirmed and incorporated into MAV99 harboring pACT-HAB1 and tested for ligand activation using uracil-independent growth and X-gal staining experiments. The same method was used to generate a PYL2^WIN version in a protein expression vector for crystallization studies.

T1 sequence (O49686 whole entry H60P/N90S/H115Q/Y120G/F159V/A160G, other chains not shown): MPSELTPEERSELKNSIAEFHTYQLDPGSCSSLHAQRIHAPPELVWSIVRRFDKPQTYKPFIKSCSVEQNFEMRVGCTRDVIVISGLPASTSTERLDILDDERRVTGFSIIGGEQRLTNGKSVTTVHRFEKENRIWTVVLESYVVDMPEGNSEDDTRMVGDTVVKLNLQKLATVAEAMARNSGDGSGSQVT

Row | Molecule | ligand concentration to which optimized sensors respond [1] | Bottom (PYR1^DIAZI; PYR1-DIAZI) | Top (PYR1^DIAZI; PYR1-DIAZI) | Bottom (PYR1^PIRI; PYR1-PIRI) | Top (PYR1^PIRI; PYR1-PIRI) | other results
1 | COC(=O)[C@@H](NC(=O)c1nn(CCCCF)c2ccccc12)C(C)(C)C [4F-MDMB, 4F-MDMB-BUTINACA] |  |  |  |  |  | average LOD from two biological replicates (PYR1^4F-M): 6 nM and 2.2 ng/ml
2 | CCOP(=S)(OCC)Oc1cc(C)nc(C(C)C)n1 [Diazinon, diazinon] | 10 nM | 17196 | 103999 | 19123 | 109997 | EC50 (PYR1^DIAZI; PYR1-DIAZI, no unit in table (text b82 gives the same values in nM), read-out: EC50): 43.1 nM; EC50 (PYR1^DIAZI; PYR1^DIAZI, yeast-transcription circuit, read-out: EC50): 43 nM; EC50 to diazinon lower than all other molecules profiled (PYR1^DIAZI; PYR1^DIAZI, selectivity versus panel of chemically similar organophosphates): greater than 10 fold; EC50 (PYR1^PIRI; PYR1-PIRI, no unit in table (text b82 gives the same values in nM/μM), read-out: EC50): 1010 nM; EC50 (PYR1^PIRI; PYR1^PIRI, yeast-transcription circuit, strongest off-target response, read-out: EC50): 1000 nM; EC50 higher than that with pirimiphos (PYR1^PIRI; PYR1^PIRI, off-target diazinon versus pirimiphos): 50 fold
3 | CCN(CC)c1nc(C)cc(OP(=S)(OC)OC)n1 [Pirimiphos, pirimiphos-methyl] | 10 nM | 14673 | 88148 | 12745 | 105951 | EC50 (PYR1^DIAZI): 17400 nM; EC50 (PYR1^PIRI): 20 nM
4 | PYR1^JWH-072: PYR1 variant sensor for JWH-072; cannabinoid receptor sequence (MPSGLTPEERSELKNSIAEFHTYQLDPGSCSSLHAQRIHAPPELVWSIVRRFDKPQTYN) |  |  |  |  |  | cross-reactivity to off-target cannabinoid ligands (HAB1): modest cross-reactivity
